According to article PMC8940841, “A metabolically stable PET tracer for imaging synaptic vesicle protein 2A: synthesis and preclinical characterization of [^18F]SDM-16” (European Journal of Nuclear Medicine and Molecular Imaging, 2021):
pKi: −log10 of the molar value. Where two headings read alike, the source gives them in different places. Each block holds one compound with its values, some of them ahead of it.

What was measured:
human SV2A = human SV2A (Homo sapiens, UniProt Q7L0J3); set-up: Duplicate samples of human frontal cortex gray matter were homogenized in PBS buffer; from tissue; host or cells: human frontal cortex gray matter homogenate; conditions: other SV2A ligands; read-out: Ki; cited from earlier work
Sequence of human SV2A (Q7L0J3 whole entry): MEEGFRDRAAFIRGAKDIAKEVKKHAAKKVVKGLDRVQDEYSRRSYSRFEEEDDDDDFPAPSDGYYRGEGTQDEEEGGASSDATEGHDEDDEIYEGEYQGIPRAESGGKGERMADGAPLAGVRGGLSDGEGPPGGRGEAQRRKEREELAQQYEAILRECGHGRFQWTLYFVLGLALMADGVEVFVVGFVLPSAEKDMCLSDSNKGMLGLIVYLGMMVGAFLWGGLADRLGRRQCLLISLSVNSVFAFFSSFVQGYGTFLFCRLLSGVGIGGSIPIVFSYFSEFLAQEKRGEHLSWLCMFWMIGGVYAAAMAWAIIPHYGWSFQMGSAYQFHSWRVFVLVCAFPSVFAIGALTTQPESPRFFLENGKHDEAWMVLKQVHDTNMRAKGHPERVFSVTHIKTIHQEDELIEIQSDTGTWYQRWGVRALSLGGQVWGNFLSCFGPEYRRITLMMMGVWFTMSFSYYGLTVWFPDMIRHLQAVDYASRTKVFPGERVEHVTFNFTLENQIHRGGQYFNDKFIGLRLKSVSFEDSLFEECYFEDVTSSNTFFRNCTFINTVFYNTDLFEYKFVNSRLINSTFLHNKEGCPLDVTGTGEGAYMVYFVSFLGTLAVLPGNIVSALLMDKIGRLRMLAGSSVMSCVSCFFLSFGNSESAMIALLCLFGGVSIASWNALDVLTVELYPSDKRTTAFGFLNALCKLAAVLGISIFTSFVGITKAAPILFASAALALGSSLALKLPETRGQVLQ

SV2A [1] = experiment: Brain PET imaging with 1TC kinetic modeling; conditions: for VT (baseline): 1TC
Procedure: (§1) A total of 10 PET imaging experiments with [^18F]SDM-16 were performed in rhesus monkeys (Macaca mulatta) according to a protocol approved by the Yale University Institutional Animal Care and Use Committee (IACUC). Four monkeys were studied. […] Body temperature was maintained by a water-jacket heating pad. The animal was attached to a physiological monitor, and vital signs (heart rate, blood pressure, respirations, SPO2, EKG, ETCO2, and body temperature) were continuously monitored. A venous line was inserted in one limb for administration of radiotracer, displacement, and blocking drugs. A catheter was placed in the femoral artery in the other limb for blood sampling. Dynamic PET brain scans were performed on a Focus 220 system (Siemens Medical Solutions, Knoxville, TN, USA) with a reconstructed image resolution of approximately 1.5 mm. After a 9-min transmission scan, the radioligand was injected i.v. over 3 min. by an infusion pump. Dynamic PET scans were performed for 3 h (baseline and blocking scans) or 4 h (displacement scan).
(§2) PET images were reconstructed with built-in corrections for attenuation, normalization, scatter, randoms, and deadtime. PET brain images were registered to the animal’s MR image, which was subsequently registered to a brain atlas to define the regions of interest. Dynamic images were reconstructed using a Fourier rebinning and filtered back projection algorithm. A rhesus monkey brain atlas was used for generation of regions of interest (ROIs) and time − activity curves (TACs) for the following ROIs: amygdala, brain stem, caudate nucleus, centrum semiovale (CS), cerebellum, cingulate cortex, frontal cortex, globus pallidus, hippocampus, insula, nucleus accumbens, occipital cortex, pons, putamen, substantia nigra, temporal cortex, and thalamus.
(§3) Volume of distribution (VT, mL·cm^−3) values and the first-order kinetic rate constants of tracer (K1) were derived through 1-tissue (1T) compartment kinetic modeling with the metabolite-corrected arterial plasma input function, which was calculated as the product of the fitted total plasma curve and the parent radiotracer fraction curve. Nondisplaceable volume of distribution (VND) and SV2A occupancy by LEV was calculated using the Lassen plot [32]. Nondisplaceable binding potential (BPND) values were calculated from VT values using CS as reference region, or the VND derived from the blocking study, i.e., BPND = (VT, ROI − VT, CS)/ VT, CS or BPND = (VT/VND) -1.

[2] = Free base fraction in plasma by modified Henderson-Hasselbalch equation (Eq. 1); conditions: Eq. 1, plasma pH 7.4
[3] = Measurement of lipophilicity (octanol / PBS pH 7.4); format: physicochemical; conditions: for logP: octanol/PBS pH 7.4
Procedure: The logP of [^18F]SDM-16 was determined by a method modified from previously published procedures. Briefly, an aliquot of […] (10 µCi) of the radioligand was added to a 2-mL microtube containing 0.8 mL of octanol and 0.8 mL of 1 × phosphate buffered saline (1 × PBS, pH 7.4). The mixture was vortexed for 30 s and then centrifuged at 2000 g for 2 min. A subsample of the octanol (0.1 mL) and 1 × PBS (0.5 mL) layers was evaluated with a gamma counter. The major portion of the octanol layer (0.5 mL) was diluted with another 0.3 mL of octanol, mixed with a fresh portion of 0.8 mL of PBS, vortexed, centrifuged, and analyzed as described above. This process was repeated until consistent log P values were obtained, with five consecutive equilibration procedures being performed for each logP measurement. Four separate measurements were performed for [^18F]SDM-16 on different days.

[4] = Plasma free fraction (fp) by ultrafiltration; format: in vitro ADME, rhesus monkey; conditions: monkey, plasma (separated from spiked whole blood)
Procedure: The unbound fraction of [^18F]SDM-16 in plasma (fp) of rhesus monkey was measured in triplicate using the ultrafiltration method. Briefly, [^18F]SDM-16 solution was added to 3 mL of whole blood. After incubation at ambient temperature for 5 min, the blood sample was centrifuged at 3900 rpm for 5 min. A sample of the supernatant plasma (0.3 mL) was loaded onto the reservoir of a Centrifree® Ultrafiltration device (Merck Millipore Ltd. Tullagreen, Carrigtwohill, Co. Cork, IRELAND) in triplicate and centrifuged at 1228 g for 20 min. The fp value was calculated as the ratio of radioactivity in the filtrate to that in the plasma.

[5] = Plasma radiometabolite analysis during PET scans; format: in vivo, rhesus monkeys; conditions: 30 min p.i.
Procedure: Arterial blood samples were collected during the PET scans to measure the radioactivity in plasma for generation of the metabolite-corrected arterial plasma input function. Plasma radiometabolite analysis was performed using the column-switching method, following a published protocol. Briefly, arterial blood samples were collected at 3-, 8-, 15-, 30-, 60-, 90-, 120-, and 180-min post-injection (p. i.), treated with urea (8 M), filtered, and injected onto a self-packed short column (4.6 × 19 mm) eluting with 1% MeCN in water at a flow rate of 2 mL/min. The sample was then back flushed onto a Gemini-NX column (5 μm, 4.6 mm × 250 mm) eluting with 40% MeCN/60% 0.1 M ammonium formate (pH 6.4) at a flow rate of 1.2 mL/min. The eluent was fraction-collected using an automated spectrum chromatography CF-1 fraction collector. Activity in the whole blood, plasma, filtrated plasma-urea mix, filters, and HPLC fractions were counted with automatic gamma well-counter (Wizard 2, PerkinElmer). The sample recovery rate, extraction efficiency, and HPLC fraction recovery were monitored. The unmetabolized [^18F]SDM-16 parent fraction was determined as the ratio of the sum of radioactivity in fractions containing the parent compound to the total amount of radioactivity collected and fitted with inverted Gamma4 approaches.
[^18F]SDM-16 had higher metabolite-corrected plasma SUV than the other SV2A radiotracers, indicating slower plasma clearance and higher metabolic stability (Fig. 2a). Whole-blood and plasma-input functions were highly consistent between the two animals, with a stable plasma to whole-blood ratio of 0.93 ± 0.13 over the entire 180-min acquisition period (Fig. S1).

[6] = Brain PET imaging with 1TC kinetic modeling; conditions: rhesus monkey
Procedure: as §1, §2, §3

SV2A [7] = conditions: 1TC, cited from earlier work
SV2A [8] = target: SV2A (Macaca mulatta, UniProt H9EQH8); conditions: previously determined; cited from earlier work
Sequence of SV2A (Macaca mulatta, UniProt H9EQH8) (H9EQH8 1-742): as the sequence (Q7L0J3 whole entry) above, with G64S, I572V counted along it

Compound: Cc1cnccc1CN1C[C@@H](c2cc(F)cc(F)c2)CC1=O [SynVesT-1]
pKi (human SV2A): 8.51

Compound: Cc1cnccc1CN1C[C@@H](c2cc(F)c(F)c(F)c2)CC1=O [UCB-J]
pKi (human SV2A): 8.59

K1 (SV2A [1]; Amygdala): 0.11 ± 0.01 mL/cm^3 per min | VT (baseline) (SV2A [1]; Amygdala): 15.6 ± 8.2 mL/cm^3 | K1 (SV2A [1]; Anterior cingulate): 0.15 ± 0.03 mL/cm^3 per min | K1 (SV2A [1]; Brainstem): 0.15 ± 0.03 mL/cm^3 per min | VT (baseline) (SV2A [1]; Brainstem): 21.0 ± 4.9 mL/cm^3 | K1 (SV2A [1]; Caudate): 0.13 ± 0.02 mL/cm^3 per min | K1 (SV2A [1]; Cerebellum): 0.17 ± 0.03 mL/cm^3 per min | K1 (SV2A [1]; Cingulate cortex): 0.17 ± 0.034 mL/cm^3 per min | K1 (SV2A [1]; Frontal cortex): 0.15 ± 0.03 mL/cm^3 per min | VT (baseline) (SV2A [1]; Frontal cortex): 49.0 ± 18.2 mL/cm^3 | K1 (SV2A [1]; Globus pallidus): 0.10 ± 0.01 mL/cm^3 per min | K1 (SV2A [1]; Hippocampus): 0.12 ± 0.02 mL/cm^3 per min | VT (baseline) (SV2A [1]; Hippocampus): 31.4 ± 16.6 mL/cm^3 | K1 (SV2A [1]; Insular cortex): 0.15 ± 0.01 mL/cm^3 per min | VT (baseline) (SV2A [1]; Insular cortex): 57.8 ± 26.9 mL/cm^3 | K1 (SV2A [1]; Mean ± SD over brain regions): 0.14 ± 0.03 mL/cm^3 per min | K1 (SV2A [1]; Nucleus accumbens): 0.13 ± 0.02 mL/cm^3 per min | VT (baseline) (SV2A [1]; Nucleus accumbens): 34.1 ± 4.8 mL/cm^3 | K1 (SV2A [1]; Occipital cortex): 0.19 ± 0.03 mL/cm^3 per min | VT (baseline) (SV2A [1]; Occipital cortex): 47.0 ± 16.6 mL/cm^3 | K1 (SV2A [1]; Putamen): 0.17 ± 0.03 mL/cm^3 per min | K1 (SV2A [1]; Temporal cortex): 0.14 ± 0.02 mL/cm^3 per min | VT (baseline) (SV2A [1]; Temporal cortex): 51.4 ± 26.2 mL/cm^3 | K1 (SV2A [1]; Thalamus): 0.14 ± 0.03 mL/cm^3 per min | SUV (brain tracer uptake) (SV2A [1]; baseline scan, end of scan, frontal cortex and putamen): about 4 | fraction present in plasma as free base [2]: 49% | logD ([3]; octanol / 1x PBS, pH 7.4): 1.1 | logP [3]: 1.1 | fraction unbound at 5 min [4]: 0.75 | parent fraction in plasma [5]: 70 ± 7%
Compound: [11CH3]n1cncc1CN1C[C@@H](c2cc(F)cc(F)c2)CC1=O [[^11C]UCB-A]

Compound: [11CH3]c1cnccc1CN1C[C@@H](c2cc(F)c(F)c(F)c2)CC1=O [[^11C]UCB-J]
fraction unbound ([6]; brain tissue, intravenous): 0.073 | BPND, VND method (SV2A [1]; Amygdala): 2.77 ± 0.06 | BPND, VT(CS) method (SV2A [1]; Amygdala): 0.85 ± 0.34 | K1 (SV2A [1]; Amygdala): 0.48 ± 0.14 mL/cm^3 per min | BPND, VND method (SV2A [1]; Anterior cingulate): 6.84 ± 0.18 | BPND, VT(CS) method (SV2A [1]; Anterior cingulate): 2.70 ± 0.74 | K1 (SV2A [1]; Anterior cingulate): 0.73 ± 0.20 mL/cm^3 per min | BPND, VND method (SV2A [1]; Brainstem): 2.61 ± 0.44 | BPND, VT(CS) method (SV2A [1]; Brainstem): 0.76 ± 0.21 | K1 (SV2A [1]; Brainstem): 0.89 ± 0.17 mL/cm^3 per min | BPND, VND method (SV2A [1]; Caudate): 5.78 ± 0.43 | BPND, VT(CS) method (SV2A [1]; Caudate): 2.40 ± 0.72 | K1 (SV2A [1]; Caudate): 0.75 ± 0.12 mL/cm^3 per min | BPND, VND method (SV2A [1]; Cerebellum): 4.43 ± 0.83 | BPND, VT(CS) method (SV2A [1]; Cerebellum): 1.95 ± 0.36 | K1 (SV2A [1]; Cerebellum): 0.81 ± 0.16 mL/cm^3 per min | BPND, VND method (SV2A [1]; Cingulate cortex): 7.37 ± 1.18 | BPND, VT(CS) method (SV2A [1]; Cingulate cortex): 3.17 ± 0.84 | BPND, VND method (SV2A [1]; Frontal cortex): 7.28 ± 1.00 | BPND, VT(CS) method (SV2A [1]; Frontal cortex): 3.17 ± 0.84 | K1 (SV2A [1]; Frontal cortex): 0.66 ± 0.16 mL/cm^3 per min | BPND, VND method (SV2A [1]; Globus pallidus): 3.31 ± 0.38 | BPND, VT(CS) method (SV2A [1]; Globus pallidus): 1.10 ± 0.28 | K1 (SV2A [1]; Globus pallidus): 0.65 ± 0.11 mL/cm^3 per min | in vivo Kd ratio, Kd(tracer)/Kd([^18F]SDM-16) (SV2A [1]; Guo plot of baseline VT): 0.38 | BPND, VND method (SV2A [1]; Hippocampus): 4.47 ± 0.14 | BPND, VT(CS) method (SV2A [1]; Hippocampus): 1.59 ± 0.39 | K1 (SV2A [1]; Hippocampus): 0.61 ± 0.12 mL/cm^3 per min | BPND, VND method (SV2A [1]; Insular cortex): 7.24 ± 0.73 | BPND, VT(CS) method (SV2A [1]; Insular cortex): 3.12 ± 0.81 | K1 (SV2A [1]; Insular cortex): 0.75 ± 0.17 mL/cm^3 per min | K1 (SV2A [1]; Mean ± SD over brain regions): 0.72 ± 0.17 mL/cm^3 per min | BPND, VND method (SV2A [1]; Nucleus accumbens): 7.16 ± 1.13 | BPND, VT(CS) method (SV2A [1]; Nucleus accumbens): 3.12 ± 0.81 | K1 (SV2A [1]; Nucleus accumbens): 0.77 ± 0.17 mL/cm^3 per min | BPND, VND method (SV2A [1]; Occipital cortex): 7.01 ± 0.88 | BPND, VT(CS) method (SV2A [1]; Occipital cortex): 2.97 ± 0.65 | K1 (SV2A [1]; Occipital cortex): 0.81 ± 0.21 mL/cm^3 per min | BPND, VND method (SV2A [1]; Putamen): 6.00 ± 0.24 | BPND, VT(CS) method (SV2A [1]; Putamen): 2.42 ± 0.63 | K1 (SV2A [1]; Putamen): 1.03 ± 0.19 mL/cm^3 per min | BPND, VND method (SV2A [1]; Temporal cortex): 6.57 ± 0.89 | BPND, VT(CS) method (SV2A [1]; Temporal cortex): 2.79 ± 0.61 | K1 (SV2A [1]; Temporal cortex): 0.66 ± 0.14 mL/cm^3 per min | BPND, VND method (SV2A [1]; Thalamus): 5.21 ± 0.57 | BPND, VT(CS) method (SV2A [1]; Thalamus): 2.03 ± 0.62 | K1 (SV2A [1]; Thalamus): 0.72 ± 0.24 mL/cm^3 per min | VT (baseline) (SV2A [7]; Amygdala): 24.4 ± 2.0 mL/cm^3 | VT (baseline) (SV2A [7]; Brainstem): 23.5 ± 2.8 mL/cm^3 | VT (baseline) (SV2A [7]; Caudate): 44.8 ± 4.6 mL/cm^3 | VT (baseline) (SV2A [7]; Centrum semiovale): 13.6 ± 2.9 mL/cm^3 | VT (baseline) (SV2A [7]; Cerebellum): 39.5 ± 5.8 mL/cm^3 | VT (baseline) (SV2A [7]; Cingulate cortex): 55.6 ± 10.0 mL/cm^3 | VT (baseline) (SV2A [7]; Frontal cortex): 55.4 ± 8.2 mL/cm^3 | VT (baseline) (SV2A [7]; Globus pallidus): 27.9 ± 3.0 mL/cm^3 | VT (baseline) (SV2A [7]; Hippocampus): 34.4 ± 2.8 mL/cm^3 | VT (baseline) (SV2A [7]; Insular cortex): 54.6 ± 6.7 mL/cm^3 | VT (baseline) (SV2A [7]; Nucleus accumbens): 53.9 ± 9.2 mL/cm^3 | VT (baseline) (SV2A [7]; Occipital cortex): 52.9 ± 7.0 mL/cm^3 | VT (baseline) (SV2A [7]; Putamen): 45.2 ± 3.0 mL/cm^3 | VT (baseline) (SV2A [7]; Temporal cortex): 50.4 ± 6.9 mL/cm^3 | VT (baseline) (SV2A [7]; Thalamus): 40.3 ± 6.4 mL/cm^3 | VND (SV2A [8]): 6.27 mL/cm^3 | logP [3]: 2.46 | fraction unbound at 5 min [4]: 0.46 | parent fraction in plasma [5]: 40 ± 6%

fraction unbound ([6]; in vivo): 0.195 | logP [3]: 2.17 | fraction unbound at 5 min [4]: 0.41
Compound: Cc1cnccc1CN1C[C@@H](c2cccc([18F])c2)CC1=O [[^18F]SynVesT-2]
VND (SV2A [8]): 2.10 mL/cm^3
